{"source": "paper PMC10897476", "about": "“Pyridylpiperazine efflux pump inhibitor boosts in vivo antibiotic efficacy against K. pneumoniae” (EMBO Molecular Medicine, 2023)", "format_in_all_cases": "cell-based, Klebsiella pneumoniae", "key": {"K. pneumoniae AcrB^V448E [1]": {"test_system": "K. pneumoniae AcrB^V448E", "assay": "MIC of antibiotics with and without EPI (REMA), AcrB V448E mutant", "conditions": "K. pneumoniae-AcrB^V448E, Table 2", "method_in_brief": "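K. pneumoniae ATCC 43816 carrying single chromosomal acrB or ramR mutations introduced by allelic exchange, diluted to OD600 = 0.001 in CAMHB with EPI at final 100 µM. Incubated 37 °C up to 20 h; viability by resazurin fluorescence (Ex 530/Em 590 nm).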"}, "[2]": {"test_system": "K. pneumoniae ATCC 43816 (WT)", "assay": "Checkerboard assay levofloxacin x EPI, WT strain", "conditions": "for checkerboard growth readout: ATCC43816 WT, levofloxacin 0 ng/mL; for percentage resazurin turnover: individual replicates, listed as BDM91288; for Median REMA values (percentage resazurin turnover): median n=3", "method": "(§1) MIC experiments were carried out according to the CLSI guidelines (CLSI [2023]). Overnight cultures were diluted to an OD600 = 0.001 in CAMHB followed by addition of efflux pump inhibitors (EPIs) at a final concentration of 100 µM. […] Plates were incubated at 37 °C for up to 20 h. Bacterial viability was evaluated using the resazurin microtitre assay (REMA) and measured by fluorescence using a Tecan Spaert multimode plate reader (Ex: 530 nm Em: 590 nm). MICs were defined as the concentration that prevented 90% of resazurin turnover compared to the non-treated bacteria.\n(§2) Bacterial suspensions, incubation and plate readouts were carried out as described above."}, "K. pneumoniae AcrB^V448E [3]": {"test_system": "K. pneumoniae AcrB^V448E", "assay": "Checkerboard assay levofloxacin x EPI, AcrB V448E mutant", "conditions": "for checkerboard growth readout: ATCC43816 AcrBV448E, levofloxacin 0 ng/mL; for Median REMA values / percentage resazurin turnover: Lev 0.00 ng/mL", "method": "as §1, §2"}, "[4]": {"test_system": "K. pneumoniae RamR^mut (K124*stop)", "assay": "Checkerboard assay levofloxacin x EPI, RamR mutant", "conditions": "for checkerboard growth readout: ATCC43816 ramRmut, levofloxacin 0 ng/mL", "method": "as §1, §2"}, "[5]": {"test_system": "K. pneumoniae AcrB^V448E RamR^mut", "assay": "Checkerboard assay levofloxacin x EPI, double mutant", "design": "checkerboard growth readout: unit not given here", "conditions": "for checkerboard growth readout: ATCC43816 AcrBV448E ramRmut, levofloxacin 0 ng/mL", "method": "as §1, §2"}}, "note": "Values joined by “and” are separate entries in the source; they are usually repeats but may differ in a detail not shown here. Equal entries are not always repeated."}
{"smiles": "Clc1cc2cc(N3CCNCC3)ccc2nc1N1CCNCC1", "note": "[compound 5]", "values": [{"measurement": "susceptibility of the strain to antibiotic boosting by the EPI, in words", "setting": "K. pneumoniae AcrB^V448E [1]", "result": "resistant"}, {"measurement": "checkerboard growth readout", "setting": "[2]; EPI 2.3 µM", "result": 105}, {"measurement": "checkerboard growth readout", "setting": "[2]; EPI 4.7 µM", "result": 106}, {"measurement": "checkerboard growth readout", "setting": "[2]; EPI 9.4 µM", "result": 97}, {"measurement": "checkerboard growth readout", "setting": "[2]; EPI 19 µM", "result": 85}, {"measurement": "checkerboard growth readout", "setting": "[2]; EPI 38 µM", "result": 109}, {"measurement": "checkerboard growth readout", "setting": "[2]; EPI 75 µM", "result": 121}, {"measurement": "checkerboard growth readout", "setting": "[2]; EPI 150 µM", "result": 118}, {"measurement": "checkerboard growth readout", "setting": "[2]; EPI 300 µM", "result": 87}, {"measurement": "maximal boosting of levofloxacin activity (decrease of MIC)", "setting": "[2]; K. pneumoniae WT (ATCC 43816), at 38 µM BDM91288", "result": 4, "unit": "fold"}, {"measurement": "concentration needed for efficacy in vitro (boosting levofloxacin activity)", "setting": "[2]; K. pneumoniae WT, Fig. 2", "result": "9 to 38", "unit": "µM"}, {"measurement": "percentage resazurin turnover", "setting": "[2]; Lev 0.00 ng/mL + EPI 2.34 uM", "result": "110% and 85% and 105%"}, {"measurement": "Median REMA values (percentage resazurin turnover)", "setting": "[2]; Lev 0.00 ng/mL + EPI 2.34 uM", "result": 105, "unit": "%"}, {"measurement": "percentage resazurin turnover", "setting": "[2]; Lev 0.00 ng/mL + EPI 4.69 uM", "result": "106% and 98% and 117%"}, {"measurement": "Median REMA values (percentage resazurin turnover)", "setting": "[2]; Lev 0.00 ng/mL + EPI 4.69 uM", "result": 106, "unit": "%"}, {"measurement": "percentage resazurin turnover", "setting": "[2]; Lev 0.00 ng/mL + EPI 9.38 uM", "result": "97% and 89% and 110%"}, {"measurement": "Median REMA values (percentage resazurin turnover)", "setting": "[2]; Lev 0.00 ng/mL + EPI 9.38 uM", "result": 97, "unit": "%"}, {"measurement": "percentage resazurin turnover", "setting": "[2]; Lev 0.00 ng/mL + EPI 18.75 uM", "result": "66% and 85% and 116%"}, {"measurement": "Median REMA values (percentage resazurin turnover)", "setting": "[2]; Lev 0.00 ng/mL + EPI 18.75 uM", "result": 85, "unit": "%"}, {"measurement": "percentage resazurin turnover", "setting": "[2]; Lev 0.00 ng/mL + EPI 37.50 uM", "result": "112% and 98% and 109%"}, {"measurement": "Median REMA values (percentage resazurin turnover)", "setting": "[2]; Lev 0.00 ng/mL + EPI 37.50 uM", "result": 109, "unit": "%"}, {"measurement": "percentage resazurin turnover", "setting": "[2]; Lev 0.00 ng/mL + EPI 75.00 uM", "result": "89% and 138% and 121%"}, {"measurement": "Median REMA values (percentage resazurin turnover)", "setting": "[2]; Lev 0.00 ng/mL + EPI 75.00 uM", "result": 121, "unit": "%"}, {"measurement": "percentage resazurin turnover", "setting": "[2]; Lev 0.00 ng/mL + EPI 150.00 uM", "result": "94% and 132% and 118%"}, {"measurement": "Median REMA values (percentage resazurin turnover)", "setting": "[2]; Lev 0.00 ng/mL + EPI 150.00 uM", "result": 118, "unit": "%"}, {"measurement": "percentage resazurin turnover", "setting": "[2]; Lev 0.00 ng/mL + EPI 300 uM", "result": "107% and 80% and 87%"}, {"measurement": "Median REMA values (percentage resazurin turnover)", "setting": "[2]; Lev 0.00 ng/mL + EPI 300 uM", "result": 87, "unit": "%"}, {"measurement": "concentration at which boosting of levofloxacin activity starts", "setting": "[2]; parental K. pneumoniae strain, checkerboard", "result": "around 9 µM"}, {"measurement": "checkerboard growth readout", "setting": "K. pneumoniae AcrB^V448E [3]; EPI 2.3 µM", "result": 105}, {"measurement": "checkerboard growth readout", "setting": "K. pneumoniae AcrB^V448E [3]; EPI 4.7 µM", "result": 99}, {"measurement": "checkerboard growth readout", "setting": "K. pneumoniae AcrB^V448E [3]; EPI 9.4 µM", "result": 105}, {"measurement": "checkerboard growth readout", "setting": "K. pneumoniae AcrB^V448E [3]; EPI 19 µM", "result": 100}, {"measurement": "checkerboard growth readout", "setting": "K. pneumoniae AcrB^V448E [3]; EPI 38 µM", "result": 109}, {"measurement": "checkerboard growth readout", "setting": "K. pneumoniae AcrB^V448E [3]; EPI 75 µM", "result": 118}, {"measurement": "checkerboard growth readout", "setting": "K. pneumoniae AcrB^V448E [3]; EPI 150 µM", "result": 109}, {"measurement": "checkerboard growth readout", "setting": "K. pneumoniae AcrB^V448E [3]; EPI 300 µM", "result": 93}, {"measurement": "boosting of levofloxacin activity, in words", "setting": "K. pneumoniae AcrB^V448E [3]; K. pneumoniae AcrB^V448E", "result": "boosting was no longer observed"}, {"measurement": "Median REMA values", "setting": "K. pneumoniae AcrB^V448E [3]; BDM91288 2.34 uM", "result": 105, "unit": "%"}, {"measurement": "percentage resazurin turnover", "setting": "K. pneumoniae AcrB^V448E [3]; BDM91288 2.34 uM", "result": "105% and 87% and 109%"}, {"measurement": "Median REMA values", "setting": "K. pneumoniae AcrB^V448E [3]; BDM91288 4.69 uM", "result": 99, "unit": "%"}, {"measurement": "percentage resazurin turnover", "setting": "K. pneumoniae AcrB^V448E [3]; BDM91288 4.69 uM", "result": "99% and 89% and 111%"}, {"measurement": "Median REMA values", "setting": "K. pneumoniae AcrB^V448E [3]; BDM91288 9.38 uM", "result": 105, "unit": "%"}, {"measurement": "percentage resazurin turnover", "setting": "K. pneumoniae AcrB^V448E [3]; BDM91288 9.38 uM", "result": "105% and 90% and 114%"}, {"measurement": "Median REMA values", "setting": "K. pneumoniae AcrB^V448E [3]; BDM91288 18.75 uM", "result": 100, "unit": "%"}, {"measurement": "percentage resazurin turnover", "setting": "K. pneumoniae AcrB^V448E [3]; BDM91288 18.75 uM", "result": "100% and 93% and 138%"}, {"measurement": "Median REMA values", "setting": "K. pneumoniae AcrB^V448E [3]; BDM91288 37.50 uM", "result": 109, "unit": "%"}, {"measurement": "percentage resazurin turnover", "setting": "K. pneumoniae AcrB^V448E [3]; BDM91288 37.50 uM", "result": "99% and 109% and 157%"}, {"measurement": "Median REMA values", "setting": "K. pneumoniae AcrB^V448E [3]; BDM91288 75.00 uM", "result": 118, "unit": "%"}, {"measurement": "percentage resazurin turnover", "setting": "K. pneumoniae AcrB^V448E [3]; BDM91288 75.00 uM", "result": "124% and 117% and 118%"}, {"measurement": "Median REMA values", "setting": "K. pneumoniae AcrB^V448E [3]; BDM91288 150.00 uM", "result": 109, "unit": "%"}, {"measurement": "percentage resazurin turnover", "setting": "K. pneumoniae AcrB^V448E [3]; BDM91288 150.00 uM", "result": "109% and 152% and 108%"}, {"measurement": "Median REMA values", "setting": "K. pneumoniae AcrB^V448E [3]; BDM91288 300 uM", "result": 93, "unit": "%"}, {"measurement": "percentage resazurin turnover", "setting": "K. pneumoniae AcrB^V448E [3]; BDM91288 300 uM", "result": "114% and 93% and 89%"}, {"measurement": "checkerboard growth readout", "setting": "[4]; EPI 2.3 µM", "result": 90}, {"measurement": "checkerboard growth readout", "setting": "[4]; EPI 4.7 µM", "result": 91}, {"measurement": "checkerboard growth readout", "setting": "[4]; EPI 9.4 µM", "result": 93}, {"measurement": "checkerboard growth readout", "setting": "[4]; EPI 19 µM", "result": 96}, {"measurement": "checkerboard growth readout", "setting": "[4]; EPI 38 µM", "result": 124}, {"measurement": "checkerboard growth readout", "setting": "[4]; EPI 75 µM", "result": 151}, {"measurement": "checkerboard growth readout", "setting": "[4]; EPI 150 µM", "result": 151}, {"measurement": "checkerboard growth readout", "setting": "[4]; EPI 300 µM", "result": 103}, {"measurement": "reversion of RamR-mediated levofloxacin resistance, in words", "setting": "[4]; K. pneumoniae RamR^mut", "result": "completely reverted"}, {"measurement": "checkerboard growth readout", "setting": "[5]; EPI 2.3 µM", "result": 87}, {"measurement": "checkerboard growth readout", "setting": "[5]; EPI 4.7 µM", "result": 75}, {"measurement": "checkerboard growth readout", "setting": "[5]; EPI 9.4 µM", "result": 86}, {"measurement": "checkerboard growth readout", "setting": "[5]; EPI 19 µM", "result": 93}, {"measurement": "checkerboard growth readout", "setting": "[5]; EPI 38 µM", "result": 98}, {"measurement": "checkerboard growth readout", "setting": "[5]; EPI 75 µM", "result": 128}, {"measurement": "checkerboard growth readout", "setting": "[5]; EPI 150 µM", "result": 153}, {"measurement": "checkerboard growth readout", "setting": "[5]; EPI 300 µM", "result": 136}, {"measurement": "modulation of levofloxacin MIC, in words", "setting": "[5]; K. pneumoniae AcrB^V448E RamR^mut", "result": "No modulation"}]}
